Assay [1] deals with Ribosomal protein S6 kinase alpha-2 (Homo sapiens) (UniProt Q15349). Description: Inhibition of RSK3 (unknown origin) at 0.49 uM relative to control.
Assay [2] deals with AMPK alpha2/beta1/gamma1 (Homo sapiens) (UniProt P54646+P54619+Q9Y478). Description: Inhibition of AMPK-alpha2/beta1/gamma1 (unknown origin) at 0.49 uM relative to control. It counts as protein-complex assay.
Assay [3] addresses Tyrosine-protein kinase FRK (Homo sapiens) (UniProt P42685). Description: Inhibition of FRK (unknown origin) at 0.49 uM relative to control.
Assay [4] addresses Epidermal growth factor receptor (Homo sapiens) (UniProt P00533). Description: Inhibition of EGFR (unknown origin) at 0.49 uM relative to control.
The subject of assay [5] is Hepatocyte growth factor receptor (Homo sapiens), P08581 [M1250T]. Put plainly: Inhibition of MET M1250T mutant (unknown origin) at 0.49 uM relative to control.
The target in assay [6] is T1, Serine/threonine-protein kinase D2 (Homo sapiens) (UniProt Q9BZL6).
T1 sequence (whole entry): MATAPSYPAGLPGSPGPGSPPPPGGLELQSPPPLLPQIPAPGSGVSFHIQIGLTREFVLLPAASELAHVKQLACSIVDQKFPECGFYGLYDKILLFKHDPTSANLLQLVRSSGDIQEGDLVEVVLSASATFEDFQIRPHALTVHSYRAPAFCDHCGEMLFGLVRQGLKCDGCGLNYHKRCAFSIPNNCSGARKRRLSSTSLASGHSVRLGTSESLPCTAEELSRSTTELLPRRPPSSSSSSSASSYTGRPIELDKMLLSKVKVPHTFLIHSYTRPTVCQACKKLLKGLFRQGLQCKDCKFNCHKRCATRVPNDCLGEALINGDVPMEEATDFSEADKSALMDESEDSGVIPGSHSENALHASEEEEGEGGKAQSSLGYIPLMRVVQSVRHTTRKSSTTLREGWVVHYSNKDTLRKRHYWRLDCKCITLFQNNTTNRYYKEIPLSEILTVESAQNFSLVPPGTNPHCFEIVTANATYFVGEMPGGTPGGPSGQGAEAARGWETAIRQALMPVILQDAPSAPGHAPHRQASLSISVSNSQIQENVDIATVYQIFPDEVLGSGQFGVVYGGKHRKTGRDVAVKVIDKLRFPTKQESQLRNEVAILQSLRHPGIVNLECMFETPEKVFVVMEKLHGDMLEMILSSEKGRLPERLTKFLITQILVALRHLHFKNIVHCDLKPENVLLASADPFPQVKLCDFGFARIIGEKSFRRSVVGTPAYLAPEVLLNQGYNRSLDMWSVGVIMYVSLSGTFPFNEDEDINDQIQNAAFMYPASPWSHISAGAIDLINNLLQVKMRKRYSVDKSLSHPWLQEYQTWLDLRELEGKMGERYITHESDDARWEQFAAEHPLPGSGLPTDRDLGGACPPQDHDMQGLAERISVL
Description: Inhibition of PKD2 (unknown origin) at 0.078 uM relative to control.

Assay [7] has as its target Mitogen-activated protein kinase kinase kinase 7 (Homo sapiens) (UniProt O43318). Put plainly: Inhibition of c-TAK1 (unknown origin) at 0.078 uM relative to control.
The target in assay [8] is T2, Interleukin-1 receptor-associated kinase 4 (Homo sapiens) (UniProt Q9NWZ3).
T2 sequence (whole entry): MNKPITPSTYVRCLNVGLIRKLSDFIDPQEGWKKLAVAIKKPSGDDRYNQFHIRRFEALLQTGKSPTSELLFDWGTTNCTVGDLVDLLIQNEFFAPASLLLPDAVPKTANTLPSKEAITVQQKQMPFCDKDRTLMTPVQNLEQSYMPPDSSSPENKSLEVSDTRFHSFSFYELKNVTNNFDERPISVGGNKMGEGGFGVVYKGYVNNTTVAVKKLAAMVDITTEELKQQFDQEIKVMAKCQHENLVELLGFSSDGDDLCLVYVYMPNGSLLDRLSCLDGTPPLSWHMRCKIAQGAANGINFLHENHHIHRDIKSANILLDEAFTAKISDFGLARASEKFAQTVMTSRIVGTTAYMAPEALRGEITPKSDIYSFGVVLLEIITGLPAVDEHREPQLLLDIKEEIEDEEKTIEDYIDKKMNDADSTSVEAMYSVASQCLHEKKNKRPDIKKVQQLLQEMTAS
Description: Inhibition of IRAK4 (unknown origin) at 0.078 uM relative to control.

In assay [9] the target is Ribosomal protein S6 kinase alpha-5 (Homo sapiens) (UniProt O75582). Put plainly: Inhibition of MSK1 (unknown origin) at 0.45 uM relative to control.
The target of assay [10] is Serine/threonine-protein kinase 24 (Homo sapiens) (UniProt Q9Y6E0). Put plainly: Inhibition of MST3 (unknown origin) at 0.45 uM relative to control.
Assay [11] concerns the target Tyrosine-protein kinase Fgr (Homo sapiens) (UniProt P09769). Put plainly: Inhibition of FGR (unknown origin) at 0.45 uM relative to control.
The target in assay [12] is Insulin receptor (Homo sapiens) (UniProt P06213). Description: Inhibition of INSR (unknown origin) at 0.45 uM relative to control.
The subject of assay [13] is Mast/stem cell growth factor receptor Kit (Homo sapiens), P10721 [T670I]. Description: Inhibition of KIT T670I mutant (unknown origin) at 0.45 uM relative to control.
The target in assay [14] is Platelet-derived growth factor receptor beta (Homo sapiens) (UniProt P09619). Put plainly: Inhibition of PDGFR beta (unknown origin) at 0.45 uM relative to control.
Assay [15] addresses NUAK family SNF1-like kinase 1 (Homo sapiens) (UniProt O60285). Put plainly: Inhibition of NuaK1 (unknown origin) at 0.45 uM relative to control.
Assay [16] concerns the target Discoidin domain-containing receptor 2 (Homo sapiens) (UniProt Q16832). Put plainly: Inhibition of DDR2 (unknown origin) at 0.45 uM relative to control.
The target of assay [17] is Proto-oncogene tyrosine-protein kinase ROS (Homo sapiens) (UniProt P08922). Put plainly: Inhibition of ROS (unknown origin) at 0.45 uM relative to control.
Assay [18] concerns the target NT-3 growth factor receptor (Homo sapiens) (UniProt Q16288). Description: Inhibition of TRKC (unknown origin) at 0.45 uM relative to control.
Assay [19] deals with MAP/microtubule affinity-regulating kinase 3 (Homo sapiens) (UniProt P27448). Put plainly: Inhibition of c-TAK1 (unknown origin) at 0.45 uM relative to control.

Usually inhibition stands for the relative decrease from the control value, in per cent.

Molecules are shown by their SMILES.

Sequence of AMPK alpha2/beta1/gamma1 (Homo sapiens) (P54619 whole entry partner): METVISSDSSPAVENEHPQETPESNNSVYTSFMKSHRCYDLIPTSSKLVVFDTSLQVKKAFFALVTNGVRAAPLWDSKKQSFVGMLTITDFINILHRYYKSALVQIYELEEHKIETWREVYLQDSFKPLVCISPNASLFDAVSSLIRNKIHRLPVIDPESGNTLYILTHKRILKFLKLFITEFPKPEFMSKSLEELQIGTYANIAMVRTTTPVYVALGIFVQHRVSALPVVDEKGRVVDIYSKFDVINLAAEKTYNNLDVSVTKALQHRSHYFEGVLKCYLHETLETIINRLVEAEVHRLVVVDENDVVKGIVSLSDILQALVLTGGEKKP
Sequence of AMPK alpha2/beta1/gamma1 (Homo sapiens) (P54646 whole entry): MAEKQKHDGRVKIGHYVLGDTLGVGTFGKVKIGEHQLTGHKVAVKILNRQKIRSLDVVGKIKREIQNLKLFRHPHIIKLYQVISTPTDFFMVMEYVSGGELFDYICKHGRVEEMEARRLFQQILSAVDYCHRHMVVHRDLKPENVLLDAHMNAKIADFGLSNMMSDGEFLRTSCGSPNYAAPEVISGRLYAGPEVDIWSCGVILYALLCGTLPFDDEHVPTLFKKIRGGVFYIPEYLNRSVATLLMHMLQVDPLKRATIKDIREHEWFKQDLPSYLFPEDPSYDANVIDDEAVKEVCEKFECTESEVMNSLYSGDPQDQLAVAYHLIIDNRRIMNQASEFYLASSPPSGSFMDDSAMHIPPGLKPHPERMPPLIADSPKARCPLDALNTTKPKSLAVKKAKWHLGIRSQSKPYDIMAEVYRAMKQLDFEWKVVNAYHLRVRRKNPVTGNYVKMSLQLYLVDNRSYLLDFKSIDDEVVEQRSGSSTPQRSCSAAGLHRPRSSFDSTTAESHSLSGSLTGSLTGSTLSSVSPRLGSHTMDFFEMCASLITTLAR
Sequence of AMPK alpha2/beta1/gamma1 (Homo sapiens) (Q9Y478 2-270 partner limits assumed): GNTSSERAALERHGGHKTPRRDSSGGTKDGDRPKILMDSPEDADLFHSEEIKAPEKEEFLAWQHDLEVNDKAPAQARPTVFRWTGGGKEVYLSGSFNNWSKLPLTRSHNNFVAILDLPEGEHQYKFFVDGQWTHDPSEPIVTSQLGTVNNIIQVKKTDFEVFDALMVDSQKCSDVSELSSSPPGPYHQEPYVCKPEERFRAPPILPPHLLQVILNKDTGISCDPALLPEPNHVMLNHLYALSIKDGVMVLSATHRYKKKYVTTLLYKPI
Sequence of Ribosomal protein S6 kinase alpha-5 (Homo sapiens) (O75582 whole entry, looked up): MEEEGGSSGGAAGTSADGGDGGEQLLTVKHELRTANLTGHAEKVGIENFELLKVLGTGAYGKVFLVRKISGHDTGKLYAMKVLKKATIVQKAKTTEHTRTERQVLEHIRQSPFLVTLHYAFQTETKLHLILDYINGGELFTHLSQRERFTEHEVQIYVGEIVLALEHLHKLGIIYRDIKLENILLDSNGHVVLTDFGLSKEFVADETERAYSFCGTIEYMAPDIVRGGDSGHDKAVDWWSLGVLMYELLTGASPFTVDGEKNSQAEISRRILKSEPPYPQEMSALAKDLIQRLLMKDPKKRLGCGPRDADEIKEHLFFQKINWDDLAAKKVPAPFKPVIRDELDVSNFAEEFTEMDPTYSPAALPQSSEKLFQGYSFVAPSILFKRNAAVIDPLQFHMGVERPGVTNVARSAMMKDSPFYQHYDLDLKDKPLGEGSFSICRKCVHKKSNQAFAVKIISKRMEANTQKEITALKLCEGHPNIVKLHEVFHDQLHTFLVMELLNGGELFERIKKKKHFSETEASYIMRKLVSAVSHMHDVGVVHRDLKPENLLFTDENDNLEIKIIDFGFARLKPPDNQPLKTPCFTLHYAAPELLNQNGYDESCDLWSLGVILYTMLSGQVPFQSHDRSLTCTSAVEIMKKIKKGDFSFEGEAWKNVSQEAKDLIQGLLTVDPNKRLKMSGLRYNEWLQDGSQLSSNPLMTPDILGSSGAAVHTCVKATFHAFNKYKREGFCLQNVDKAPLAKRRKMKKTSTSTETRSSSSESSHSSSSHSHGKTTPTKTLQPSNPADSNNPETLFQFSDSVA
Sequence of NT-3 growth factor receptor (Homo sapiens) (Q16288 32-839 limits assumed): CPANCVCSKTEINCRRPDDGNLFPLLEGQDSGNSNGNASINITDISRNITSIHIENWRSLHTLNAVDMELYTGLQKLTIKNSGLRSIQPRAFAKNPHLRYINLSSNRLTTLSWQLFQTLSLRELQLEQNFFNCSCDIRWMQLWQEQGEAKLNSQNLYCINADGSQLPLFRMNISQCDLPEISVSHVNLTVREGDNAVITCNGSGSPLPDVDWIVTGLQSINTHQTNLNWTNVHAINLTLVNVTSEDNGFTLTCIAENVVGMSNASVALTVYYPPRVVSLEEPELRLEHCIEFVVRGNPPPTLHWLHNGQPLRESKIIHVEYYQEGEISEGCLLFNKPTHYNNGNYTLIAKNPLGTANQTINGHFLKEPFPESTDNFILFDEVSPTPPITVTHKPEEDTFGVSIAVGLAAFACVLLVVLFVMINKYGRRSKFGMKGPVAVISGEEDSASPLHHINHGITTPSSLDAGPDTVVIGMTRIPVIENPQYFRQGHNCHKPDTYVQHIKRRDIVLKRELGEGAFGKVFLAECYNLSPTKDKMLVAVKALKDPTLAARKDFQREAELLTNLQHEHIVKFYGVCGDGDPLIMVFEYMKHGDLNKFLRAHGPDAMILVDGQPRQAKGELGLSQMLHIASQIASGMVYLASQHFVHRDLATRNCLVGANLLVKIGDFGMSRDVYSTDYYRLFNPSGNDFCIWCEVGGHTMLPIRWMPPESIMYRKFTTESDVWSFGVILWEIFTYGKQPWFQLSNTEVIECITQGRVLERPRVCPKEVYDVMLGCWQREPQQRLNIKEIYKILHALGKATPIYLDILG
Sequence of Mitogen-activated protein kinase kinase kinase 7 (Homo sapiens) (O43318 whole entry): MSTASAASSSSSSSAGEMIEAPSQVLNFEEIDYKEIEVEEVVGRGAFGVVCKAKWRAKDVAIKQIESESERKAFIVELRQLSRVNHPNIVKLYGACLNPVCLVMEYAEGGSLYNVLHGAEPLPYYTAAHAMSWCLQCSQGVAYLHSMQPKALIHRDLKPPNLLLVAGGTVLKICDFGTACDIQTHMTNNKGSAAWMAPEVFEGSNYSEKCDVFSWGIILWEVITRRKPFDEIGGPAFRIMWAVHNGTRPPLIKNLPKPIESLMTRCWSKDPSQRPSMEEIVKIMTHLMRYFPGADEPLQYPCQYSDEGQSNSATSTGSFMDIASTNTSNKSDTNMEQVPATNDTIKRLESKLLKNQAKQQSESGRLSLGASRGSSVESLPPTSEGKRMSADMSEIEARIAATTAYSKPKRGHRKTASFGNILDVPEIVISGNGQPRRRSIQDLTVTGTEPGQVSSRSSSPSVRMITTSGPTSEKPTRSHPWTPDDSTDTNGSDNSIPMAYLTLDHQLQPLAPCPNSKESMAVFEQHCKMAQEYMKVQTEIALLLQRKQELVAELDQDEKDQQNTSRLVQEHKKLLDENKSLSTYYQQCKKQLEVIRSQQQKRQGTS
Sequence of Discoidin domain-containing receptor 2 (Homo sapiens) (Q16832 whole entry, the tested form may be a part): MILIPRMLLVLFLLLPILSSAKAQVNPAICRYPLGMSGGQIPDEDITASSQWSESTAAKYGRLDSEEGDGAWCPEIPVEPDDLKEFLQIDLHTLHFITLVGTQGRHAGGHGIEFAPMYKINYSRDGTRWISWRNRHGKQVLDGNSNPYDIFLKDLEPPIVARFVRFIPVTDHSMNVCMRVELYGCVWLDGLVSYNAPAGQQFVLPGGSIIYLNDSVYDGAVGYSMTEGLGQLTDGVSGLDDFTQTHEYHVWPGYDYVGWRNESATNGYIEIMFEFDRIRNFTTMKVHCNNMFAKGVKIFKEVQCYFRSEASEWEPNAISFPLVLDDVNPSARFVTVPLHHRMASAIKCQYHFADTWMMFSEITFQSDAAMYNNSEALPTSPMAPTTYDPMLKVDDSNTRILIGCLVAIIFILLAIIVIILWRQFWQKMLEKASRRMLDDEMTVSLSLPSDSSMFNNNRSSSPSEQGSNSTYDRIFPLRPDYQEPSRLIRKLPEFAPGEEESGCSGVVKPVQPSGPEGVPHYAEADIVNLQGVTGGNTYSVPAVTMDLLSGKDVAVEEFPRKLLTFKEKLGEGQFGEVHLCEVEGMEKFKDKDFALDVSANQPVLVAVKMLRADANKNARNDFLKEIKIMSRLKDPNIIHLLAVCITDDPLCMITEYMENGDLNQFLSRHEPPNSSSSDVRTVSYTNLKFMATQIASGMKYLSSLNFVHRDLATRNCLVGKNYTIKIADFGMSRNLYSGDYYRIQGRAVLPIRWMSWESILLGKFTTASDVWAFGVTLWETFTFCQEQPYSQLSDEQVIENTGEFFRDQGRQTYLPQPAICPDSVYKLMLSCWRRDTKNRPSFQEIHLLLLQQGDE
Sequence of MAP/microtubule affinity-regulating kinase 3 (Homo sapiens) (P27448 whole entry, looked up): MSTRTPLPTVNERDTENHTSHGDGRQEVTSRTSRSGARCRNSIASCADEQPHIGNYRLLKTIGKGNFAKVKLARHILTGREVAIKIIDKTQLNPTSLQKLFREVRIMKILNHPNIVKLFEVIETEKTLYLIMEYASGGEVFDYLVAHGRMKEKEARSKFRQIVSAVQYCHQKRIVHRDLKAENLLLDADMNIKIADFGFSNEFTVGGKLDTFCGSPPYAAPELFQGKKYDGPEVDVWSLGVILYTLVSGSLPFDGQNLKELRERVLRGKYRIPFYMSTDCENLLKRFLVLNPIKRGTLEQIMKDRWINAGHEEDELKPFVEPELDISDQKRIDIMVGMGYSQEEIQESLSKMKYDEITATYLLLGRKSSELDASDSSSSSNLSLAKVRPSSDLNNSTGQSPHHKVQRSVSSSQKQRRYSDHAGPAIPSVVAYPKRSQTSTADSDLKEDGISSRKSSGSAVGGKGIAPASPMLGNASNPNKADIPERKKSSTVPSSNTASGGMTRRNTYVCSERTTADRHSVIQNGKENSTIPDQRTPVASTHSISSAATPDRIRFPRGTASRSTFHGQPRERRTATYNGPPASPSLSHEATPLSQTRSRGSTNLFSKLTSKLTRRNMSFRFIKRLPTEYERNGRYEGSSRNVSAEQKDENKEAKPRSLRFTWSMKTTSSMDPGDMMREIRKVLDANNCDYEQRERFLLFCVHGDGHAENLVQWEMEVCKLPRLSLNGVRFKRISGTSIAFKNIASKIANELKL

Take `Cc1[nH]nc(C2CC2)c1-c1ccc2c(NC(=O)C3CC3)noc2c1`: the inhibition in [1] was 2%; in assay [2], 3.3%; in [3], 1.3%; in assay [4], -7.3%; in assay [5], 1.3%.
`COC(=O)Nc1noc2cc(-c3c(-c4ccccn4)n[nH]c3C)ccc12`: the inhibition is -0.7% in [6], -3.3% in [7] and 5.7% in assay [8].
For the compound `Cc1n[nH]c(C)c1-c1ccc2c(NC(=O)c3ccc(N4CCN(C)CC4)cc3)n[nH]c2c1`, the inhibition was 1.3% in assay [9]; 44.7% in assay [10]; 13% in assay [11]; 3% in [12]; -10% in assay [13]; 78.3% in assay [14]. Besides, the inhibition turned out to be 13% in assay [15]; 66% in [16]; 1.3% in assay [17]; 95% in assay [18]; 15% in assay [19].

The values above are taken from ChEMBL document CHEMBL4052759, “Discovery of DS79182026: A potent orally active hepcidin production inhibitor” (Bioorg Med Chem Lett, 2017).
